Experimental data as given in patent US20260373183A1, “ANTIBIOTIC-RESISTANT ARTIFICIAL NUCLEOSIDE, COMPOSITION AND METHOD” (priority 2022, published 2026).

Tests used:
[1] = tested on: Pseudomonas aeruginosa strains (VIM-2, SPM-1, IMP-1, OXA-50, ATCC 27853, PA01); test: checkerboard MIC experiments, 5-NIdR combined with aztreonam/avibactam; assay type: cell-based
Protocol: 5-NIdR alone was not active, displaying individual MICs>512 μg/ml against these strains.

[2] = tested on: bacterial persisters; test: fluorescence and SEM of bacterial persisters treated with aztreonam/avibactam with or without 5-NIdR (FIG. 5); assay type: cell-based
Description: First, the artificial nucleoside inhibits TLS activity in response to ROS generated by β-lactams, and this serves to enhance the cytotoxicity of this class of antibiotics. […] These two features represent a novel approach to attack drug-resistant bacteria.

O=[N+]([O-])c1ccc2c(ccn2[C@H]2C[C@H](O)[C@@H](CO)O2)c1 [5-NIdR, 5-nitro-indolyl-2′-deoxynucleoside]
activity of 5-NIdR alone ([1]; 5-NIdR alone, against these strains): not active
fold reduction in the MICs for aztreonam/avibactam ([1]; 5-NIdR combined with aztreonam/avibactam, 5-NIdR concentrations as low as 0.5 μg/ml, all strains listed): > 10 -fold
MIC ([1]; Pseudomonas aeruginosa, ATCC27853, read-out: minimal inhibitory concentrations (MICs)): > 512 µg/mL
lowest 5-NIdR concentration required to achieve a >10-fold reduction in the MICs for aztreonam/avibactam ([1]; combined with β-lactams (aztreonam/avibactam), all Pseudomonas aeruginosa strains listed): 0.5 μg/ml
cell-killing effects in checkerboard analysis ([1]; combining 5-NIdR with aztreonam/avibactam in drug-resistant bacteria (FIG. 3A-F)): synergistic cell-killing effects
inhibitory activity in checkerboard experiments ([1]; variable concentrations of 5-NIdR combined with variable concentrations of aztreonam/avibactam): excellent inhibitory activity
influence on formation of persisters induced by antibiotic treatment ([2]; 5-NIdR added to aztreonam/avibactam, panel d): does not appear to influence formation of persisters
viability of filamentous persisters ([2]; 5-NIdR combined with aztreonam/avibactam): adversely affects the viability of filamentous persisters
morphology of persisters (fluorescence and SEM) ([2]; 5-NIdR combined with aztreonam/avibactam, panels d, e): formation of “ghost” apoptotic saccules which represent non-viable persisters that do not undergo reversion
